This note sets out measurements from patent US7709010B2, “Papillomavirus vaccine compositions” (Merck Sharp & Dohme Corp., priority 2007, dated 2010).

Series [1] has as its system microorganisms (e.g., bacteria and fungi). Nature of the series: Anti-microbial effectiveness (AME) test (USP, EP-B, EP-A criteria). It is filed as cell-based. As to conditions: initial screening, octavalent HPV formulation with MAA, stored one week at 2-8° C. before test.
Protocol: The effectiveness of various preservatives in candidate HPV vaccine formulations was evaluated using an antimicrobial test (anti-microbial effectiveness (AME) test). AME testing was used to determine the ability of a preservative to reduce or eliminate microbes that may be introduced into the vial following product withdrawal. […] Briefly, the AME test comprises the EPA, EPB and USP criteria, which consist of inoculating 10^5-10^6 CFU/mL microorganisms (e.g., bacteria and fungi) per container at time zero, and evaluating the log reduction over time (Meyer et al., supra).
Thimerosal was also included as a reference.
All samples contained 562.5 mcg/mL MAA, 0.32 M NaCl, 10 mM His, 0.01% polysorbate-80 (PS-80), pH 6.2. Formulations containing chlorobutanol and propylparaben were tested with and without the addition of 120 mcg/mL ISCOMATRIX®.
Preservatives were added to octavalent HPV formulations comprising 8 types of HPV VLPs, as described in EXAMPLE 1, and were stored for one week at 2-8° C. prior to AME testing.
Several HPV vaccine formulations with various dose and combinations of preservatives, in the presence or absence of IMX adjuvant, were tested.
Each type of HPV VLP aqueous bulk was absorbed on MAA separately with a protein-to-adjuvant ratio of 0.71 to form the monovalent vaccines in 0.32 M NaCl, 10 mM Histidine (pH 6.2), 0.01% (w/v) PS-80. […]
Series [2] has as its target HPV18 VLPs (Human papillomavirus type 18, UniProt P06794). It is filed as physicochemical, HPV. As to conditions: data not shown. How it is done: Differential Scanning Calorimetry (DSC) was used to evaluate the impact of preservatives on protein structural and thermal stability. The analysis for antigen thermal stability was determined using a VP-Capillary DSC Platform (MicroCal, LLC, Northampton, Mass.). A detailed description of the conditions utilized is disclosed in Ionescu et al. (2007) (J. Pharm. Sci. 97(4): 1414-1426 (2008)).
The DSC evaluation was carried out in the presence of various preservatives with varied concentrations.

The target of series [3] is HPV Type 18 VLPs (Human papillomavirus type 18, UniProt P06794). It is filed as binding. As to conditions: HPV18 VLPs, 2 months at 2-8° C., n=2, Biacore. Background: SPR reads the build-up and loss of mass on a sensor chip optically.
HPV Type 18 VLPs, sequence (P06794 whole entry): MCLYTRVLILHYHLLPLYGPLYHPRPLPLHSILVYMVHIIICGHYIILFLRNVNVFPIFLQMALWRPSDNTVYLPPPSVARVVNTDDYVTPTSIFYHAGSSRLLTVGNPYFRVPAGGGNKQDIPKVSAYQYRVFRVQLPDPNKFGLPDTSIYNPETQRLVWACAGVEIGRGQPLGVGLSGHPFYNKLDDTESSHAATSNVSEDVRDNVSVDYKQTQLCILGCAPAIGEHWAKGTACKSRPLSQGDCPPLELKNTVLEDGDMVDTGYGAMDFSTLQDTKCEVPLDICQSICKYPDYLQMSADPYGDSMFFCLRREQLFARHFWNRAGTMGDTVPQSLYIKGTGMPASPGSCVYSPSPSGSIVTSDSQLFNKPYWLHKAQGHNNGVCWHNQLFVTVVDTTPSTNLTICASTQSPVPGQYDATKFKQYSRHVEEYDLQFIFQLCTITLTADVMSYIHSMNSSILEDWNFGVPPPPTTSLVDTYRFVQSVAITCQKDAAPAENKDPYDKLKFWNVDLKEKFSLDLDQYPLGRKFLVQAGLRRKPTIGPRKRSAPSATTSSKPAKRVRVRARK
Protocol: The in vitro antigenicity of HPV vaccine formulations comprising HPV18 VLPs and different preservatives was evaluated using a neutralization antibody binding assay (Biacore, Surface Plasmon Resonance). The analysis for antigen bioactivity was determined using the Biacore 2000 (VPR 332) and Biacore 3000 (VPR 696) (Biacore, Inc., Piscataway, N.J.).
Samples were incubated for 2 months at 2-8° C. prior to sample treatment by aluminum dissolution, followed by the final Biacore analysis.

HPV18 VLPs, sequence (P06794 whole entry): as above

For `OCCOc1ccccc1` [2-phenoxyethanol], the “AME test criteria passed (USP, EP-B, EP-A)” value in series [1] is “did not pass EP-B or EP-A”.

As for `C[CH2][Hg][S]c1ccccc1C(=O)[O-].[Na+]` [thimerosal], the “impact on the thermal stability of HPV type 18 (DSC)” value in series [2] is listed as “greatest impact”. Further, the “average relative in vitro antigenicity” value in series [3] is reported as 80%.
